Assay results from US10092657B2, “Opsonized β-glucan preparations and methods” (Biothera, Inc., priority 2011, dated 2018).

Key:
human neutrophils [1] = test: Binding of PGG β-glucan to human neutrophils (BfD IV staining, flow cytometry); type: cell-based
Experimental: Enriched neutrophils or PBMC were resuspended at 1×10^6 cells/mL in RPMI 1640 supplemented with 10% serum. PGG β-glucan at hexose concentrations 100 μg/mL, 200 μg/mL, or 400 μg/mL were added to neutrophils or PBMC and incubated in a 37° C., 5% CO2 humidified incubator for two hours. After incubation, cells were washed twice with FACS buffer (HBSS supplemented with 1% FBS and 0.1% sodium azide) to remove any unbound β-glucan, and subsequently treated with Fc block (Miltenyi Biotec, Auburn, Calif.). […] Cells were then incubated with FITC-conjugated F(ab′)2 goat anti-mouse IgM for 30 minutes at 4° C. and washed once with cold FACS buffer before fixing with 1% paraformaldehyde. In early optimization experiments, neutrophils, monocytes, and T cells were identified by staining with fluorescently labeled anti-CD 15, anti-CD 14, or anti-CD3 Abs, respectively. Events were collected on a LSRII flow cytometer (BD Biosciences, San Jose, Calif.) and analysis was performed using FLOWJO (Tree Star, Ashland, Oreg.). […] Surface binding of DTAF-conjugated β-glucan was subsequently assessed by flow cytometric analysis. […] The experiments to determine binding of PGG β-glucan at 200 μg/mL to neutrophils or at 100 μg/mL to PBMC were performed as described above with the following changes. For determining serum dependency, PGG β-glucan was incubated with neutrophils or PBMC resuspended in RPMI 1640 containing 2%, 5%, or 10% autologous serum at 37° C. for two hours. For time-course experiments, PGG β-glucan at indicated concentrations was incubated with cells resuspended in 10% autologous serum at 37° C. for 10 minutes, 20 minutes, 60 minutes, or 120 minutes. For temperature dependency experiments, PGG β-glucan at indicated concentrations was incubated with cells resuspended in 10% autologous serum for two hours at 4° C., room temperature, or 37° C.

T-cells = test: Binding of PGG β-glucan to T-cells within PBMC (BfD IV staining, flow cytometry); type: cell-based, human; settings: 100, 200, 400 μg/mL; 10% autologous serum; 37° C.; two hours
Experimental: Enriched neutrophils or PBMC were resuspended at 1×10^6 cells/mL in RPMI 1640 supplemented with 10% serum. PGG β-glucan at hexose concentrations 100 μg/mL, 200 μg/mL, or 400 μg/mL were added to neutrophils or PBMC and incubated in a 37° C., 5% CO2 humidified incubator for two hours. After incubation, cells were washed twice with FACS buffer (HBSS supplemented with 1% FBS and 0.1% sodium azide) to remove any unbound β-glucan, and subsequently treated with Fc block (Miltenyi Biotec, Auburn, Calif.). After the Fc block step, cells were stained with the BfD IV Ab for 30 minutes at 4° C. and washed twice with cold FACS buffer. Cells were then incubated with FITC-conjugated F(ab′)2 goat anti-mouse IgM for 30 minutes at 4° C. and washed once with cold FACS buffer before fixing with 1% paraformaldehyde.
In early optimization experiments, neutrophils, monocytes, and T cells were identified by staining with fluorescently labeled anti-CD 15, anti-CD 14, or anti-CD3 Abs, respectively. […] Surface binding of DTAF-conjugated β-glucan was subsequently assessed by flow cytometric analysis. To determine receptor-specific binding, binding of 25 μg/mL of DTAF-labeled PGG β-glucan was assessed by incubating the labeled β-glucan with the cells in the presence of 10 mg/mL of unlabeled PGG β-glucan or dextran.

human neutrophils [2] = test: Binding of DTAF-labeled PGG β-glucan to human neutrophils, with excess unlabeled competitor; type: cell-based; settings: 10 mg/mL unlabeled competitor; 25 μg/mL DTAF-labeled β-glucan
Experimental: In early optimization experiments, neutrophils, monocytes, and T cells were identified by staining with fluorescently labeled anti-CD 15, anti-CD 14, or anti-CD3 Abs, respectively. Events were collected on a LSRII flow cytometer (BD Biosciences, San Jose, Calif.) and analysis was performed using FLOWJO (Tree Star, Ashland, Oreg.). For assessing binding of DTAF-labeled PGG β-glucan to human neutrophils, 25 βg/mL, 100 μg/mL, or 400 μg/mL of labeled β-glucan was added to neutrophils resuspended in RPMI/10% serum, incubated in a 37° C., 5% CO2 humidified incubator for one hour, washed twice with cold FACS buffer, and fixed with 1% paraformaldehyde. Surface binding of DTAF-conjugated β-glucan was subsequently assessed by flow cytometric analysis.

human neutrophils [3] = test: Binding studies on the role of complement proteins in serum, neutrophils; type: cell-based
Experimental: Heat-inactivated (HI) serum was prepared by incubating serum in a 56° C. water bath for 30 minutes. […] Treatment of serum with methylamine (MA) was done by incubating serum with 0.67% of methylamine for 2.5 hours at 37° C., followed by three washes with DPBS using Amicon centrifugal filter unit with a 3K MW cut-off (Millipore, Billerica, Mass.). DPBS-treated serum was prepared in the same manner and used as control serum for MA-treated serum. For blocking of factor D in the serum, 166-32 at concentration 20 μg/mL was incubated with serum on ice for 30 minutes, and then used for binding studies. For binding experiments in the presence of EGTA or MgEGTA, serum was incubated with 10 mM EGTA with or without 10 mM MgCl2 for 10 minutes at room temperature. The untreated and EGTA/MgEGTA-treated serum was then used to pre-treat PGG and perform binding studies as described earlier.

human neutrophils [4] = test: Binding of PGG β-glucan after serum pre-treatment, neutrophils; type: cell-based; settings: 200 μg/mL; 10% HI serum; two hours at 37° C.
Experimental: PGG β-glucan at concentration 60-80 mg/mL was incubated with human serum at 1:10 volume ratio for 30 minutes in a 37° C. water bath. The serum-pretreated PGG β-glucan was added to neutrophils at 200 μg/mL or to PBMC at 100 μg/mL resuspended in RPM1 containing either 10% regular autologous serum or 10% HI serum at indicated time and temperature of incubation. Binding was then determined as described previously.
To determine the role of complement proteins in binding, experiments were performed as described above except for using serum containing 10% HI, compstatin-treated or methylamine (MA)-treated, EGTA- or EGTA+MgCl2 (MgEGTA)-treated, or factor D-blocked serum. Heat-inactivated (HI) serum was prepared by incubating serum in a 56° C. water bath for 30 minutes. […] Treatment of serum with methylamine (MA) was done by incubating serum with 0.67% of methylamine for 2.5 hours at 37° C., followed by three washes with DPBS using Amicon centrifugal filter unit with a 3K MW cut-off (Millipore, Billerica, Mass.). DPBS-treated serum was prepared in the same manner and used as control serum for MA-treated serum. For blocking of factor D in the serum, 166-32 at concentration 20 μg/mL was incubated with serum on ice for 30 minutes, and then used for binding studies. […]

[5] = 2%, 5% or 10% autologous serum, 37° C., two hours

Substance: β(1,6)-[poly-1,3)-D-glucopyranosyl]-poly-β(1,3)-D-glucopyranose [PGG β-glucan]
- Minimum concentration of β-glucan detected on the cells by the BfD IV detection system (human neutrophils [1]): 100 µg/mL
- Incubation time of maximal binding (human neutrophils [1]; 200 μg/mL, 10% serum, 37° C.): 30 to 60 min
- Percentage of serum at which maximal binding occurred (human neutrophils [1]; [5]): 10%
- Percentage of serum at which minimum binding occurred (human neutrophils [1]; [5]): 2%
- Concentration at which percentage of BfD IV positive cells reached a plateau (human neutrophils [1]; 10% autologous serum, 37° C., two hours): 200 µg/mL
- Binding (MFI and percentage of BfD IV positive cells) (human neutrophils [1]; 100, 200, 400 μg/mL, 10% autologous serum, 37° C., two hours): bound to both neutrophils and monocytes
- Incubation temperature of maximal binding (human neutrophils [1]; two hours at 4° C., room temperature or 37° C., 10% serum): 37 °C
- Binding (MFI and percentage of BfD IV positive cells) (T-cells): not to T-cells
- Blocking of DTAF-labeled β-glucan staining by excess unlabeled glucan (human neutrophils [2]): blocked by excess unlabeled β-glucan
- Binding in the presence of heat inactivated (HI) serum (human neutrophils [3]; 10% HI serum vs regular serum, 200 μg/mL): abrogated
- Average percentage of binding inhibition in HI serum (human neutrophils [3]; based on MFI, five donors): 89%
- Range of percentage of binding inhibition in HI serum (human neutrophils [3]; based on MFI, five donors): 71-100%
- Extent of rescued binding to cells in HI serum (MFI, percentage of BfD IV positive cells) (human neutrophils [4]): minimal
